Tests used:
[1] = molecular target: T1, Aurora-A (Homo sapiens, UniProt O14965); assay: Aurora-A enzyme assay (MBP-coated Flashplate, γ-33P-ATP); format: biochemical; settings: IC50 range class; read-out: Inhibitor Activity vs Aurora-A
T1 sequence (O14965 1-403): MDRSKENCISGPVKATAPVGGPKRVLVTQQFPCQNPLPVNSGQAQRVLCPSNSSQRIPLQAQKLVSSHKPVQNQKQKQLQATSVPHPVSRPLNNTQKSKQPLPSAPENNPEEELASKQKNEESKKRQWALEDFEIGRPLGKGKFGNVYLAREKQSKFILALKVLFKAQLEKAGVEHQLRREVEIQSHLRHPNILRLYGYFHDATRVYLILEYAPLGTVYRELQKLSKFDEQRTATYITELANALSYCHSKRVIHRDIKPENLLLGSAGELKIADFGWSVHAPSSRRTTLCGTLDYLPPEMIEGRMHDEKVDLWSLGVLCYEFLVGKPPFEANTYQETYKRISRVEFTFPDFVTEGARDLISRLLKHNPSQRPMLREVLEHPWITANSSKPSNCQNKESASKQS
Method: (§1) The ability of compounds to inhibit Aurora-A activity was measured using a simple microplate assay for Aurora-A activity, also suitable for high-throughput screening. In brief, γ-^33P-ATP and Aurora-A were incubated in a myelin basic protein (MBP)-coated Flashplate® to generate a scintillation signal. The plates were formatted to contain the inhibitor, controls, positive control (staurosporin) and blanks. After incubation at 37° C. for 1 hour and a subsequent wash procedure, the plates were read on a TopCount-NXT™.
The 384-well basic Flashplate® and the γ-^33P-ATP were obtained from PerkinElmer Life Sciences, Boston, Mass.
(§2) IC50 values were determined by non-linear regression analysis, after fitting the data point results to the equation for sigmoidal dose response with variable slope (% activity against log concentration of compound), using Graphpad Prism software.
Full experimental procedure for this assay can be found within the following reference: Sun, C Journal of Biomolecular Screening 9(5), 2004, 391.

[2] = molecular target: Aurora-B (Homo sapiens, UniProt Q96GD4); assay: Aurora-B enzyme assay (identical protocol as Aurora-A); format: biochemical; settings: IC50 range class; read-out: Inhibitor Activity vs Aurora-B
Sequence of Aurora-B (Q96GD4 whole entry): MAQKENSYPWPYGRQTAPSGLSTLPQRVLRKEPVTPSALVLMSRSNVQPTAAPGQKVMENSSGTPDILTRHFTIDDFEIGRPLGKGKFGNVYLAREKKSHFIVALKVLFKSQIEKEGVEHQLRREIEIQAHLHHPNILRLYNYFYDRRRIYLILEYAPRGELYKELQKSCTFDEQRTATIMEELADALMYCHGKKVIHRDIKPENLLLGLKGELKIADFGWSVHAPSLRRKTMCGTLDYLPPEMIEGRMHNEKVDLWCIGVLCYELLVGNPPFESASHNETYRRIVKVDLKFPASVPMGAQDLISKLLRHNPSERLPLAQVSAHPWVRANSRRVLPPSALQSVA
Method: as §1, §2
The Aurora-B enzyme assay follows the identical protocol as Aurora-A.

[3] = tested on: U937 cell line; assay: Cell inhibition assay (SRB cell viability), U937; format: cell-based; settings: Homo sapiens, U-937, IC50 range class, 72 h, read-out: Inhibitor Activity vs U937 cell line
In short: (§3)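 Log-phase cells seeded at 1000 cells/well, grown 24 h, then exposed to compounds (20 uM final) for 72 h. Viability read by sulphorhodamine B staining as % inhibition versus DMSO; IC50 from eight-point sigmoidal variable-slope fit.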

[4] = tested on: HUT cell line; assay: Cell inhibition assay (SRB cell viability), HUT; format: cell-based; settings: IC50 range class, 72 h, read-out: Inhibitor Activity vs HUT cell line
In short: as §3

[5] = tested on: HCT 116 cell line; assay: Cell inhibition assay (SRB cell viability), HCT 116; format: cell-based; settings: Homo sapiens, IC50 range class, 72 h, read-out: Inhibitor Activity vs HCT 116 cell line
In short: as §3

Structure (SMILES) | IC50 [1] | IC50 [2] | IC50 [3] | IC50 [5] | IC50 [4]
COc1cc2c(Sc3ccc(NC(=O)C4CC4)cc3)ccnc2cc1OCC[C@H](N)C(=O)O [Example 21, (S)-2-Amino-4-{4-[4-(cyclopropanecarbonyl-amino)-phenylsulfanyl]-6-methoxy-quinolin-7-yloxy}-butyric acid] | 2000 to 5000 nM | 2000 to 5000 nM | – | – | –
COc1cc2c(Oc3ccc(NCc4ccccc4)cc3)ccnc2cc1OCC[C@H](N)C(=O)O [Example 139, (S)-2-Amino-4-[4-(4-benzylamino-phenoxy)-6-methoxy-quinolin-7-yloxy]-butyric acid] | 2000 to 5000 nM | 2000 to 5000 nM | – | – | –
COc1cc2c(Oc3ccc(NC(=O)c4ccccc4)cc3OC)ccnc2cc1OCC[C@H](N)C(=O)O [Example 133, (S)-2-Amino-4-[4-(4-benzoylamino-2-methoxy-phenoxy)-6-methoxy-quinolin-7-yloxy]-butyric acid] | 2000 to 5000 nM | 2000 to 5000 nM | – | – | –
COc1cc2c(Oc3ccc(NC(=O)c4ccc(F)cc4)cc3)ccnc2cc1OCC[C@H](N)C(=O)O [Example 64, (S)-2-Amino-4-{4-[4-(4-fluoro-benzoylamino)-phenoxy]-6-methoxy-quinolin-7-yloxy}-butyric acid] | 2000 to 5000 nM | < 2000 nM | – | – | –
COc1cc2c(Oc3ccc(NC(=O)C4CC4)cc3)ccnc2cc1OCC[C@H](N)C(=O)OC1CCCC1 [Example 59, (S)-2-Amino-4-{4-[4-(cyclopropanecarbonyl-amino)-phenoxy]-6-methoxy-quinolin-7-yloxy}-butyric acid cyclopentyl ester] | – | > 5000 nM | < 1000 nM | 1000 to 5000 nM | 1000 to 5000 nM
COc1ccc(C(=O)Nc2ccc(Oc3ccnc4cc(OCC[C@H](N)C(=O)O)c(OC)cc34)cc2)cc1 [Example 58, (S)-2-Amino-4-{6-methoxy-4-[4-(4-methoxy-benzoylamino)-phenoxy]-quinolin-7-yloxy}-butyric acid] | > 5000 nM | < 2000 nM | – | – | –
COc1cc2c(Oc3ccc(CNC(=O)c4ccccc4)cc3)ccnc2cc1OCC[C@H](N)C(=O)O [Example 142, (S)-2-Amino-4-{4-[4-(benzoylamino-methyl)-phenoxy]-6-methoxy-quinolin-7-yloxy}-butyric acid] | 2000 to 5000 nM | < 2000 nM | – | – | –
COc1ccc(C(=O)Nc2ccc(Oc3ccnc4cc(OCC[C@H](N)C(=O)OC5CCCC5)c(OC)cc34)cc2)cc1 [Example 57, (S)-2-Amino-4-{6-methoxy-4-[4-(4-methoxy-benzoylamino)-phenoxy]-quinolin-7-yloxy}-butyric acid cyclopentyl ester] | – | 2000 to 5000 nM | < 1000 nM | 1000 to 5000 nM | 1000 to 5000 nM
COc1cc2c(Nc3ccc(NC(=O)c4ccccc4)cc3)c(C#N)cnc2cc1OCC[C@H](N)C(=O)OC1CCCC1 [Example 27] | > 5000 nM | – | 1000 to 5000 nM | 1000 to 5000 nM | < 1000 nM
COc1cc2c(Nc3ccc(NC(=O)c4ccccc4)cc3)c(C#N)cnc2cc1OCC[C@H](NC(=O)OC(C)(C)C)C(=O)OC1CCCC1 [Example 28] | > 5000 nM | – | < 1000 nM | > 5000 nM | 1000 to 5000 nM
COc1cc2c(Oc3ccc(NC(=O)c4ccccc4)cc3F)ccnc2cc1OCC[C@H](N)C(=O)OC1CCCC1 [Example 128, (S)-2-Amino-4-[4-(4-benzoylamino-2-fluoro-phenoxy)-6-methoxy-quinolin-7-yloxy]-butyric acid cyclopentyl ester] | – | 2000 to 5000 nM | < 1000 nM | < 1000 nM | < 1000 nM
COc1cc2c(Oc3ccc(C(=O)Nc4ccccc4)cc3)ccnc2cc1OCC[C@H](N)C(=O)OC1CCCC1 [Example 77, (S)-2-Amino-4-[6-methoxy-4-(4-phenylcarbamoyl-phenoxy)-quinolin-7-yloxy]-butyric acid cyclopentyl ester] | – | > 5000 nM | 1000 to 5000 nM | > 5000 nM | 1000 to 5000 nM

Further lines, with some results ahead:

IC50 [1] | IC50 [2] | IC50 [3] | IC50 [5] | Structure (SMILES) | IC50 [4]
< 2000 nM | < 2000 nM | – | – | COc1cc2c(Oc3ccc(NC(=O)c4ccc(C(F)(F)F)cc4)cc3)ccnc2cc1OCC[C@H](N)C(=O)O [Example 54, (S)-2-Amino-4-{6-methoxy-4-[4-(4-trifluoromethyl-benzoylamino)-phenoxy]-quinolin-7-yloxy}-butyric acid] | –
< 2000 nM | < 2000 nM | – | – | COc1cc2c(Oc3ccc(NC(=O)Nc4ccc(C(F)(F)F)cc4)cc3)ccnc2cc1OCC[C@H](N)C(=O)O [Example 94, (S)-2-Amino-4-(6-methoxy-4-{4-[3-(4-trifluoromethyl-phenyl)-ureido]-phenoxy}-quinolin-7-yloxy)-butyric acid] | –
< 2000 nM | < 2000 nM | – | – | COc1cc2c(Oc3ccc(NC(=O)Nc4ccc(C(F)(F)F)cc4)cc3)ccnc2cc1OCCC[C@H](N)C(=O)O [Example 114, (S)-2-Amino-5-(6-methoxy-4-{4-[3-(4-trifluoromethyl-phenyl)-ureido]-phenoxy}-quinolin-7-yloxy)-pentanoic acid] | –
< 2000 nM | < 2000 nM | – | – | COc1cc2c(Oc3ccc(NC(=O)Nc4ccccc4)cc3)ccnc2cc1OCC[C@@H](N)C(=O)O [Example 102, (R)-2-Amino-4-{6-methoxy-4-[4-(3-phenyl-ureido)-phenoxy]-quinolin-7-yloxy}-butyric acid] | –
< 2000 nM | < 2000 nM | – | – | COc1cc2c(Oc3ccc(NC(=O)Nc4ccc(C(F)(F)F)cc4)cc3)ccnc2cc1OCCC[C@@H](N)C(=O)O [Example 120, (R)-2-Amino-5-(6-methoxy-4-{4-[3-(4-trifluoromethyl-phenyl)-ureido]-phenoxy}-quinolin-7-yloxy)-pentanoic acid] | –
< 2000 nM | < 2000 nM | – | – | COc1cc2c(Oc3ccc(NC(=O)c4ccccc4)cc3)ccnc2cc1OCCC[C@H](N)C(=O)O [Example 110, (S)-2-Amino-5-[4-(4-benzoylamino-phenoxy)-6-methoxy-quinolin-7-yloxy]-pentanoic acid] | –
< 2000 nM | < 2000 nM | – | – | COc1cc2c(Oc3ccc(NC(=O)c4ccccc4)cc3F)ccnc2cc1OCC[C@H](N)C(=O)O [Example 129, (S)-2-Amino-4-[4-(4-benzoylamino-2-fluoro-phenoxy)-6-methoxy-quinolin-7-yloxy]-butyric acid] | –
2000 to 5000 nM | < 2000 nM | – | – | COc1cc2c(Oc3ccc(NC(=O)c4ccccc4)cc3)ccnc2cc1OCC[C@@H](N)C(=O)O [Example 100, (R)-2-Amino-4-[4-(4-benzoylamino-phenoxy)-6-methoxy-quinolin-7-yloxy]-butyric acid] | –
< 2000 nM | < 2000 nM | – | – | COc1cc2c(Oc3ccc(NC(=O)c4ccccc4)cc3)ccnc2cc1OCC[C@H](N)C(=O)O [Example 4, (S)-2-Amino-4-[4-(4-benzoylamino-phenoxy)-6-methoxy-quinolin-7-yloxy]-butyric acid] | –
< 2000 nM | < 2000 nM | – | – | COc1cc2c(Oc3ccc(NC(=O)Nc4ccccc4)cc3)ccnc2cc1OCCC[C@H](N)C(=O)O [Example 112, (S)-2-Amino-5-{6-methoxy-4-[4-(3-phenyl-ureido)-phenoxy]-quinolin-7-yloxy}-pentanoic acid] | –
2000 to 5000 nM | < 2000 nM | – | – | COc1ccc(NC(=O)Cc2ccc(Oc3ccnc4cc(OCC[C@H](N)C(=O)O)c(OC)cc34)cc2)cc1 [Example 91, (S)-2-Amino-4-(6-methoxy-4-{4-[(4-methoxy-phenylcarbamoyl)-methyl]-phenoxy}-quinolin-7-yloxy)-butyric acid] | –
2000 to 5000 nM | < 2000 nM | – | – | COc1cc2c(Oc3ccc(NC(=O)c4ccccc4F)cc3)ccnc2cc1OCC[C@H](N)C(=O)O [Example 62, (S)-2-Amino-4-{4-[4-(2-fluoro-benzoylamino)-phenoxy]-6-methoxy-quinolin-7-yloxy}-butyric acid] | –
< 2000 nM | < 2000 nM | – | – | COc1cc2c(Oc3ccc(NC(=O)Nc4ccccc4)cc3)ccnc2cc1OCC[C@H](N)C(=O)O [Example 96, (S)-2-Amino-4-{6-methoxy-4-[4-(3-phenyl-ureido)-phenoxy]-quinolin-7-yloxy}-butyric acid] | –
2000 to 5000 nM | < 2000 nM | – | – | COc1cc2c(Oc3ccc(CC(=O)Nc4ccccc4F)cc3)ccnc2cc1OCC[C@H](N)C(=O)O [Example 83, (S)-2-Amino-4-(4-{4-[(2-fluoro-phenylcarbamoyl)-methyl]-phenoxy}-6-methoxy-quinolin-7-yloxy)-butyric acid] | –
